Measurements taken from patent US6673937B2, “Syntheses and methods of use of new antimitotic agents” (The University of Pittsburgh, priority 2000, dated 2004).

Tests used:
Bcl-2 = Bcl-2 phosphorylation immunoblot in MCF-7 cells; type: cell-based, human
Excerpt: Attempts to determine the phosphorylation status of Bcl-2 in tsFT210 cells using two different antibodies were unsuccessful due to the antibodies' inability to detect mouse Bcl-2 or the lack of specificity. Therefore, phosphorylated and non-phosphorylated Bcl-2 was detected in lysates from human MCF-7 cells (American Type Culture Collection, Manassas, Va.) treated with microtubule perturbing agents. Equal amounts of protein were separated by electrophoresis on 15% SDS-PAGE followed by immunoblotting with an antihuman Bcl-2 antibody (sc-509, Santa Cruz Biotechnology). Positive antibody reactions were visualized using peroxidase-conjugated secondary antibodies (Jackson ImmunoResearch, West Grove, Pa.) and an enhanced chemiluminescence detection system (Renaissance, NEN, Boston, Mass.) according to manufacturer's instructions.
All known microtubule disrupting compounds cause hyperphosphorylation of the antiapoptotic protein Bcl-2 (Haldar S, Jena N and Croce CM (1995) Inactivation of bcl-2 by phospliorylation. Proc Natl Acad Sci USA 92:4507-4511 and Basu A and Haldar S (1998) Microtubule-damaging drugs trigger bcl2 phosphorylation-requirement of phosphorylation on both serine-70 and serine-87 residues of bcl2 protein. Intl J Oncol 13:659-664). Therefore, the phosphorylation status of Bcl-2 in cells treated with various compounds including SR-7 was examined and the results are illustrated in FIG. 29. Proteins from lysates of MCF-7 cells treated with 0.5 μM paclitaxel, 1 μM nocodozole, 1,μM vincristine and, 3 or 10 μM SR-7 were separated by electrophoresis on 15% SDS-PAGE followed by immunoblotting with an antibody to Bcl-2. The phosphorylated form of Bcl-2 (P) appeared as the upper bands and the underphosphorylated form (U) was the lower band.

fungi = conditions: cited from earlier work
bovine brain tubulin [1] = assay: GTP-induced tubulin assembly (turbidity); type: biochemical
Protocol: Tubulin without microtubule-associated proteins was isolated from fresh bovine brains (Hamel E and Lin CM (1984). Separation of active tubulin and microtubule-associated proteins by ultracentrifugation and isolation of a component causing the formation of microtubule bundles. Biochemistry 23:4173-4184). Inhibition of assembly reactions was carried out as described previously (Verdier-Pinard P, Lai J-Y, Yoo H-D, Yu J, Marquez B, Nagle DG, Nambu M, White JD, Falck JR, Gerwick WH, Day BW and Hamel E (1998) Structure-activity analysis of the interaction of curacin A, the potent colchicine site antimitotic agent, with tubulin and effects of analogs on the growth of MCF-7 breast cancer cells. Mol Pharmacol 53:62-76.).
The inventors examined the ability of SR-7 to alter tubulin polymerization or depolymerization in vitro. FIG. 28, Panel A. Compounds (predissolved in DMSO) were preincubated with tubulin containing monosodium glutamate at 30 ° C. for 15 min. Samples were cooled to 0 ° C. and GTP was added. Samples were placed in a temperature-controlled multi-cuvette holder of a spectrophotometer held at 0 ° C. Baselines were established and temperature was rapidly raised to 30 ° C. Turbidity development in the cuvettes was measured at 350 nm. FIG. 28, Panel B. Compounds were added to the tubulin plus monosodium glutamate mixture at 0 ° C., placed in the spectrophotometer and temperature was raised to 30 ° C. Addition of 0.4 mM GTP to isolated bovine brain tubulin produced robust polymerization that began to plateau approximately 20 min after microtubule assembly commenced (Panel A).

bovine brain tubulin [2] = assay: Inhibition of [3H]colchicine binding; conditions: Mean ± SEM, N = 9
Protocol: Using methods described previously (Verdier-Pinard P, Lai J-Y, Yoo H-D, Yu J, Marquez B, Nagle DG, Nambu M, White JD, Falck JR, Gerwick WH, Day BW and Hamel E (1998) Structure-activity analysis of the interaction of curacin A, the potent colchicine site antimitotic agent, with tubulin and effects of analogs on the growth of MCF-7 breast cancer cells. Mol Phannacol 53:62-76.). 5,μM [^3H]colchicine was incubated with either 5% DMSO vehicle or compound (5 or 50 μM) at 37° C. for 15 min with 1 μM tubulin in the presence of 1 M monosodium glutamate, 0.1 M glucose-1-phosphate, 1 mM MgCl2, 1 mM GTP and 0.5 mg/ml bovine serum albumin. The solutions were filtered through two stacks of DEAE-cellulose filters and the radioactivity in the filtrate was determined by liquid scintillation spectrometry. Each series of determinations included positive controls of 5 and 50 μM curacin A. The inventors found no evidence that SR-7 could bind to the colchicine site of tubulin. […] The inventors propose that SR-7 may act at another site such as the previously characterized vinca alkaloid site.

tsFT210 cells [3] = assay: Flow cytometry, G2/M arrest in tsFT210 cells; type: cell-based, mouse; conditions: 6 hours
Protocol: Oncogene 18:6989-6996, Th′ng JP, Wright PS, Hamaguchi J, Lee MG, Norbury CJ, Nurse P and Bradbury EM (1990) The FT210 cell line is a mouse G2 phase mutant with a temperature-sensitive CDC2 gene product. Cell 63:313-324.). Cell proliferation was blocked at G2 phase by incubation at 39.4° C. for 17 h. The synchronized cells were then released by re-incubating at 32.0° C. and treated immediately with 0-10 μM SR-7, 1 μM nocodazole or 100 EM SC-ααδ9, respectively, to probe for G2/M arrest. […] The harvested cells were stained with a solution containing 50 μg/ml propidium iodide and 250 μg/ml RNase A. Flow cytometry analysis was conducted with a Becton Dickinson FACS Star (Franklin Lakes, N.J.). […] This G2/M retention at 4C is probably due to the extended cell cycle blockage at 39.4° C. (Osada H, Cui CB, Onose R and Hanaoka F (1997) Screening of cell cycle inhibitors from microbial metabolites by a bioassay using a mouse cdc2 mutant cell line, tsFT210. Bioorg Med Chem 5:193-203). […] SC-ααδ9 is an inhibitor of the Cdc25 family of phosphatases that controls cell cycle checkpoints (Rice RL, Rusnak JM, Yokokawa F, Yokokawa S, Messner DJ, Boynton AL, Wipf P and Lazo JS (1997) A targeted library of small molecule, tyrosine and dual specificity phosphatase inhibitors derived from a rational core design and random side chain variation. Biochemistry 36:15965-15974).

Cdk1 = assay: Western blotting for Cdk1 phosphorylation status in tsFT210 cells; type: cell-based, mouse; conditions: 6 hours
Protocol: tsFT210 cells were harvested using the same procedure for cell synchronizing and drug exposure as described above for the G2/M flow cytometric analysis. The protein lysates were analyzed by Western blotting for Cdk1 as described previously (Tamura K, Southwick EC, Kerns J, Rosi K, Carr BI, Wilcox C and Lazo JS (2000) Cdc25 inhibition and cell cycle arrest by a synthetic thioalkyl vitamin K analogue. Cancer Res 60:1317-1325.). The inventors used Cdk1 isolated from human MCF-7 cells to assay for in vitro inhibition of enzyme activity because of available antibodies and convenience. Asynchronous cells grown at 37° C. in 5% CO2 in DMEM containing 10% fetal bovine serum were treated with lysis buffer and harvested as previously described (Vogt A, Wang AS, Johnson CS, Fabisiak JP, Wipf P and Lazo JS (2000) In vivo antitumor activity and induction of insulin-like growth factor-1 resistant apoptosis by SC-ααδ9. J Pharmacol Exptl Therap 292:530-537.). Cdk1 kinase activity assay was performed as previously described (Yu L, Orlandi L, Wang P, Orr MS, Senderowicz AM, Sausville EA, Silvestrini R, Watanabe N, Piwnica-Worms H, O° Connor PM (1998) UCN-01 arogates G2 arrest through a Cdc2-dependent pathway that is associated with inactivation of the WeelHu kinase and activation of the Cdc25C phosphatase. J Biol Chem 273: 33455-33464.). […] Histone H1 was separated from other proteins by SDS-PAGE and analyzed for incorporation of radioactive phosphate with a Molecular Dynamics STORM 860 Phospholmager (Sunnyvale, CA).
The major controlling molecule for G2/M transition is the cyclin dependent kinase, Cdk1, whose cellular activity is tightly regulated by phosphorylation (Pines J (1999) Four-dimensional control of the cell cycle. Nature Cell Biol 1:E73-79., Hunter T and Pines J (1994) Cyclins and cancer II: cyclin D and CDK inhibitors come of age. Cell 79:573-582). […] The protein lysates were analyzed by Western blotting for Cdk1 content and phosphorylation status as described elsewhere herein. […]

tsFT210 cells [4] = assay: Flow cytometry, G1 transition in tsFT210 cells; type: cell-based, mouse; conditions: 100 μM, additional 6 hours

Q: For `CC[C@]1(O)C[C@H]2CN(CCc3c([nH]c4ccccc34)[C@@](C(=O)OC)(c3cc4c(cc3OC)N(C=O)[C@H]3[C@@](O)(C(=O)OC)[C@H](OC(C)=O)[C@]5(CC)C=CCN6CC[C@]43[C@@H]65)C2)C1` [vincristine], which Bcl-2 phosphorylation (Bcl-2; 1 μM vincristine) is on record?
A: caused prominent phosphorylation of Bcl-2

Q: Which antifungal activity (fungi) does the source give for `O=C1CC[C@@H](O)[C@@H]2C1=C(O)C=CC21Oc2cccc3cccc(c23)O1` [Palmarumycin CP4] here?
A: high antifungal activity

Q: Which “inhibition of GTP-induced tubulin assembly” value (bovine brain tubulin [1]; 1 μM) does the source give for `C=CC[C@@H](CC/C(C)=C/C=C/CC/C=C\[C@@H]1CSC([C@@H]2C[C@@H]2C)=N1)OC` [curacin A] here?
A: 50%

Q: And the “inhibition of GTP-induced tubulin assembly” value (bovine brain tubulin [1]; 5 μM)?
A: completely inhibited GTP-induced tubulin assembly

Q: And the “Percent inhibition of [3H]colchicine binding” value (shortened to “Percent inhibition”) (bovine brain tubulin [2]; 5 μM compound, 5 µM)?
A: ~90%

Q: What about the “Percent inhibition” value (bovine brain tubulin [2]; 5 μM compound, listed as Curacin A, 5 µM) of the same compound?
A: 89.8 ± 0.6%

Q: And the “Percent inhibition” value (bovine brain tubulin [2]; 50 μM compound)?
A: 97.3 ± 3.1%

Q: Which antifungal activity (fungi) does the source give for `O=C1c2c(O)ccc(O)c2C2(Oc3cccc4cccc(c34)O2)[C@@H]2O[C@H]12` [Palmarumycin C3] here?
A: high antifungal activity

Q: With `CCCCCCCCCC(=O)NC(CCC(=O)N(CCNC(=O)c1nc(-c2ccccc2)oc1-c1ccccc1)Cc1ccccc1)C(=O)O` (stereo not drawn) [SC-ααδ9, 4-(benzyl-(2-[ (2,5-diphenyl-oxazole-4-carbonyl)-amino]-ethyl)-carbamoyl)-2-decanoylamino butyric acid, reference compound] as the compound, how does the “G2/M cell cycle transition” value (tsFT210 cells [3]; 100 μM, Panel I) read?
A: G2/M inhibition

Q: What about the Cdk1 phosphorylation status (Cdk1; 100 IM, lane 8) of the same compound?
A: yielded a hyperphosphorylated Cdk1

Q: And the G1 transition (tsFT210 cells [4])?
A: caused a prominent G1 block

Q: Which results are given for `COC(=O)Nc1nc2cc(C(=O)c3cccs3)ccc2[nH]1` [nocodazole]?
A: Bcl-2 phosphorylation (Bcl-2; 1 μM nocodozole): caused prominent phosphorylation of Bcl-2; G2/M cell cycle transition (tsFT210 cells [3]; 1 μM): blocked cell passage through G2/M; Cdk1 phosphorylation status (Cdk1; 1 μM): no hyperphosphorylation of Cdk1 was seen

Q: With `O=C1C=CC(=O)[C@@]23O[C@@]12C1(Oc2cccc4cccc(c24)O1)[C@@H]1O[C@@H]1[C@@H]3O` [Palmarumycin C10] as the compound, how does the antifungal activity (fungi) read?
A: high antifungal activity

Q: Which Bcl-2 phosphorylation (Bcl-2; 0.5 μM) does the source give for `CC(=O)O[C@H]1C(=O)[C@@]2(C)[C@H]([C@H](OC(=O)c3ccccc3)[C@]3(O)C[C@H](OC(=O)[C@H](O)[C@@H](NC(=O)c4ccccc4)c4ccccc4)C(C)=C1C3(C)C)[C@]1(OC(C)=O)CO[C@@H]1C[C@@H]2O` [paclitaxel] here?
A: caused prominent phosphorylation of Bcl-2

Q: For `Oc1ccc(O)c2c1[C@H](O)[C@@H]1O[C@@H]1C21Oc2cccc3cccc(c23)O1` [Palmarumycin C12], which antifungal activity (fungi) is on record?
A: high antifungal activity
